Like-named read-outs stand apart in the source and are kept apart here.
Tests used:
HDAC7 = molecular target: T1, HDAC7 (Homo sapiens, UniProt Q8WUI4); experiment: HDAC biochemical activity measurement (fluorescent substrate deacetylation);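 further: fluorogenic deacetylation assay using acetyl-lysine substrate at 20 µM, enzyme and compound incubated 30 min at 37 °C, then developer added, fluorescence read at 360/460 nm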; settings: HDAC7; 37° C. 30 minutes
T1 sequence (Q8WUI4 1-952): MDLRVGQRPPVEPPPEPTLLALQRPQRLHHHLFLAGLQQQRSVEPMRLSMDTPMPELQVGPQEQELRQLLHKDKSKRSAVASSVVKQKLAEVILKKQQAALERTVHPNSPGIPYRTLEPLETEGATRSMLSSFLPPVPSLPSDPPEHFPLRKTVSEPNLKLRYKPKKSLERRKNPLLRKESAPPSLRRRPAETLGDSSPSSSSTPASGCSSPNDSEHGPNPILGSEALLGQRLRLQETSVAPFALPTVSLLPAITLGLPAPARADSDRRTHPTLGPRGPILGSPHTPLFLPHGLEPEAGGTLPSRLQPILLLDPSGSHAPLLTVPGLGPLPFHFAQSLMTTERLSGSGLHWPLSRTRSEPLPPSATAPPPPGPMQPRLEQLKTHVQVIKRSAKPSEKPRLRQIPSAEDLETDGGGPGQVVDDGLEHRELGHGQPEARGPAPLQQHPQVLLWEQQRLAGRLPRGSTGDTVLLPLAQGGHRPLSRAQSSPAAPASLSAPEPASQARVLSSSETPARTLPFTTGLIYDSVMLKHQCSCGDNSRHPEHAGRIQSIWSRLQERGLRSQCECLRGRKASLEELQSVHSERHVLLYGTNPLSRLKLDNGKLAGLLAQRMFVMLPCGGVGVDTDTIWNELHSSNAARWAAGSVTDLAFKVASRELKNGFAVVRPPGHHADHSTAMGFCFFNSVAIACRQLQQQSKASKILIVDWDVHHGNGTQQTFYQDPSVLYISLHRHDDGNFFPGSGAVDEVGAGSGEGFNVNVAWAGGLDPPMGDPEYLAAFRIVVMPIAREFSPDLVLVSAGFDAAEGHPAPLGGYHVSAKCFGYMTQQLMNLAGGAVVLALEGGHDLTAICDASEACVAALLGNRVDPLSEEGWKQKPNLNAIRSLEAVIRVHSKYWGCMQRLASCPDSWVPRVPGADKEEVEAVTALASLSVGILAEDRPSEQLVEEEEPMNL
Method: The chemical activity of the compound is determined according to the degree of deacetylation inhibition of the HDAC enzyme. This experiment measured the degree of deacetylation related to tumor proliferation and metastasis of HDAC1, HDAC2, HDAC3, HDAC8, HDAC11 five subtypes HDAC enzymes. After the substrate containing an acetylated lysine side chain and HDAC enzyme are labeled with a fluorescent label, the fluorescent substrate is de acetyl. The fluorescent labeled substrate is cleaved by the enzyme, and the fluorescent substance is released, which generates 460 nm emission light under the excitation of 360 nm light.
HDAC substrate was diluted with reaction buffer to 200M (reaction concentration of 20M), the HDAC enzyme was diluted to the appropriate concentration, then added different concentrations of the test compounds and acted at 37° C. 30 minutes, and then added the same volume of 2-times concentration substrate developing solution (developer), incubated at room temperature for 15 minutes. Finally, the last reading measured with a microplate plate reader, excitation light was 360 nm, the emitted light was 460 nm, data processing software was Prime 4, and the results are shown in Table 1.

[1] = system: A549 (human lung cancer cells); experiment: MTT cancer cell growth inhibition; assay type: cell-based; settings: Homo sapiens, A549, 72 h, MTT, 72 hours incubation, read-out: GI50 A54
Excerpt: (§1) MTT assay principle is yellow MTT can penetrate membrane into the cell, succinic dehydrogenase of the mitochondria in living cells can make exogenous MTT reduction of insoluble in water of blue-violet acicular formazan for crystallization and deposition in the cell, crystallization can be dissolved dimethyl sulfoxide (DMSO) solution, detected its absorbance at 490 nm/570 nm wavelength by enzyme-linked immunosorbent assay, which can reflect the number of cells.
(§2) Using DMEM+10% FBS culture medium or using 1640+10% FBS culture, respectively.
(§3) a) Cells were seeded in 96-well plates with the inoculation of 1500/well, 190 μl/hole, 37° C., 5% of CO2 incubator overnight;
(§4) b) The next day each well was added 10 μl of different drugs. The final concentration of drug was 10^−5˜10^−10M, three parallel holes; 37° C., 5% CO2 culture incubator for 72 hours incubation;
(§5) c) Per well was added 20 μl 5 mg/ml of MTT, 37° C., 5% CO2 culture incubator for 4 hours incubation;
(§6) d) The supernatant was discarded. Each well was added 100 μl of DMSO and oscillation;
(§7) e) 570 nm readings. Calculate cell viability. GI50 calculation based on the results.

[2] = system: BGC-823 (human gastric cancer cells); experiment: MTT cancer cell growth inhibition; assay type: cell-based; settings: Homo sapiens, BGC-823, 72 h, MTT, 72 hours incubation, read-out: GI50 BG
Excerpt: as §1, §2, §3, §4, §5, §6, §7

[3] = system: Bel-7402 (human hepatoma cells); experiment: MTT cancer cell growth inhibition; assay type: cell-based; settings: Homo sapiens, Bel-7402, 72 h, MTT, 72 hours incubation, Bel-7402 cells; read-out: GI50 Bel-7402
Excerpt: as §1, §2, §3, §4, §5, §6, §7

[4] = system: DU145 (human prostate cancer cells); experiment: MTT cancer cell growth inhibition; assay type: cell-based; settings: Homo sapiens, DU-145, 72 h, MTT, 72 hours incubation, read-out: GI50 Du1
Excerpt: as §1, §2, §3, §4, §5, §6, §7

[5] = system: H1975 (non-small cell lung adenocarcinoma); experiment: MTT cancer cell growth inhibition; assay type: cell-based; settings: Homo sapiens, NCI-H1975, 72 h, MTT, 72 hours incubation, H1975 cells; read-out: GI50 H1975
Excerpt: as §1, §2, §3, §4, §5, §6, §7

[6] = system: HCC827 (human non-small cell lung cancer cells); experiment: MTT cancer cell growth inhibition; assay type: cell-based; settings: Homo sapiens, HCC827, 72 h, MTT, 72 hours incubation, HCC827 cells; read-out: GI50 HCC827
Excerpt: as §1, §2, §3, §4, §5, §6, §7

[7] = system: HT1080 (human fibrosarcoma cells); experiment: MTT cancer cell growth inhibition; assay type: cell-based; settings: Homo sapiens, HT-1080, 72 h, MTT, 72 hours incubation, read-out: GI50 HT1
Excerpt: as §1, §2, §3, §4, §5, §6, §7

[8] = system: Hela (human cervical cancer cells); experiment: MTT cancer cell growth inhibition; assay type: cell-based; settings: Homo sapiens, HeLa, 72 h, MTT, 72 hours incubation, read-out: GI50 Hela
Excerpt: as §1, §2, §3, §4, §5, §6, §7

[9] = system: Huh-7 (human hepatoma cells); experiment: MTT cancer cell growth inhibition; assay type: cell-based; settings: Homo sapiens, Huh-7, 72 h, MTT, 72 hours incubation, Huh-7 cells; read-out: GI50 Huh-7
Excerpt: as §1, §2, §3, §4, §5, §6, §7

[10] = system: K562 (human leukemia cells); experiment: MTT cancer cell growth inhibition; assay type: cell-based; settings: Homo sapiens, K562, 72 h, MTT, 72 hours incubation, K562 cells; read-out: GI50 K562
Excerpt: as §1, §2, §3, §4, §5, §6, §7

[11] = system: KBM-5 (human chronic myelogenous leukemia); experiment: MTT cancer cell growth inhibition; assay type: cell-based; settings: Homo sapiens, KBM5, 72 h, MTT, 72 hours incubation, KBM-5 cells; read-out: GI50 KBM-5
Excerpt: as §1, §2, §3, §4, §5, §6, §7

[12] = system: KBM5-T315I (human chronic myelogenous leukemia); experiment: MTT cancer cell growth inhibition; assay type: cell-based; settings: Homo sapiens, 72 h, MTT, 72 hours incubation, KBM5-T315I cells; read-out: GI50 KBM5-T315I
Excerpt: as §1, §2, §3, §4, §5, §6, §7

[13] = system: MCF-7 (human breast cancer cells); experiment: MTT cancer cell growth inhibition; assay type: cell-based; settings: Homo sapiens, MCF7, 72 h, 72 hours incubation, read-out: GI50 MCF
Excerpt: as §1, §2, §3, §4, §5, §6, §7

[14] = system: MDA-MB-231 (breast cancer cells); experiment: MTT cancer cell growth inhibition; assay type: cell-based; settings: Homo sapiens, MDA-MB-231, 72 h, read-out: GI50 MDA-MB-231, MTT, 72 hours incubation, MDA-MB-231 cells
Excerpt: as §1, §2, §3, §4, §5, §6, §7

[15] = system: MOLT-4 (human acute lymphoblastic leukemia cells); experiment: MTT cancer cell growth inhibition; assay type: cell-based; settings: Homo sapiens, MOLT-4, 72 h, MTT, 72 hours incubation, read-out: GI50 Mol
Excerpt: as §1, §2, §3, §4, §5, §6, §7

[16] = system: N-87 (human gastric cancer cells); experiment: MTT cancer cell growth inhibition; assay type: cell-based; settings: Homo sapiens, 72 h, MTT, 72 hours incubation, N-87 cells; read-out: GI50 N-87
Excerpt: as §1, §2, §3, §4, §5, §6, §7

[17] = system: PANC-1 (Pac-1, human pancreatic cancer cells); experiment: MTT cancer cell growth inhibition; assay type: cell-based; settings: Homo sapiens, PANC-1, 72 h, MTT, 72 hours incubation, read-out: GI50 PAN
Excerpt: as §1, §2, §3, §4, §5, §6, §7

[18] = system: SGC-7901 (human gastric cancer cells); experiment: MTT cancer cell growth inhibition; assay type: cell-based; settings: Homo sapiens, SGC-7901, 72 h, MTT, 72 hours incubation, SGC-7901 cells; read-out: GI50 SGC-7901
Excerpt: as §1, §2, §3, §4, §5, §6, §7

[19] = system: U937 (human leukemia cells); experiment: MTT cancer cell growth inhibition; assay type: cell-based; settings: Homo sapiens, U-937, 72 h, MTT, 72 hours incubation, read-out: GI50 U93
Excerpt: as §1, §2, §3, §4, §5, §6, §7

[20] = system: lncap (prostate cancer cells); experiment: MTT cancer cell growth inhibition; assay type: cell-based; settings: Homo sapiens, LNCaP, 72 h, MTT, 72 hours incubation, read-out: GI50 lnca
Excerpt: as §1, §2, §3, §4, §5, §6, §7

| SMILES | IC50 HDAC7 (HDAC7) | GI50 [1] [µM] | GI50 [2] [µM] | GI50 [3] [µM] | GI50 [4] [µM] | GI50 [5] [µM] | GI50 [6] [µM] | GI50 [7] [µM] | GI50 [8] [µM] | GI50 [9] [µM] | GI50 [10] [µM] | GI50 [11] [µM] | GI50 [12] [µM] | GI50 [13] [µM] | GI50 [14] [µM] | GI50 [15] [µM] | GI50 [16] [µM] | GI50 [17] [µM] | GI50 [18] [µM] | GI50 [19] [µM] | other results |
| --- | --- | --- | --- | --- | --- | --- | --- | --- | --- | --- | --- | --- | --- | --- | --- | --- | --- | --- | --- | --- | --- |
| C/C=C1\NC(=O)c2cc(F)cc(n2)CNC(=O)C[C@@H](/C=C/CCSC(=O)CCCCCC)OC(=O)[C@H](C(C)C)NC1=O [Example 34] | no activity | 0.04 | 0.06 | 0.094 | 0.05 | 0.034 | 0.094 | 0.09 | 0.07 | 0.049 | 0.053 | 0.074 | 0.053 | 0.05 | 0.049 | 0.04 | 0.067 | 0.09 | 0.049 | 0.03 | GI50 [20]: 0.04 µM |
| C=C1NC(=O)c2ccc(F)c(n2)CNC(=O)C[C@@H](/C=C/CCSC(C)=O)OC(=O)[C@H](C)NC1=O [Compound 92] | no activity | 0.05 | 0.01 | 0.062 | 0.02 | 0.029 | 0.062 | 0.06 | 0.04 | 0.043 | 0.022 | 0.042 | 0.029 | 0.02 | 0.043 | 0.04 | 0.015 | 0.06 | 0.057 | 0.02 | GI50 [20]: 0.04 µM |
| C/C=C1\NC(=O)c2ccc(SC)c(n2)CNC(=O)C[C@@H](/C=C/CCSC(=O)CCCCC)OC(=O)[C@H](C(C)C)NC1=O [Compound 155] | no activity |  |  | 0.041 |  | 0.023 | 0.023 |  |  | 0.038 | 0.075 | 0.035 | 0.056 |  | 0.011 |  | 0.032 |  | 0.033 |  | GI50 ([1]; A549 cells): 0.04 µM; GI50 ([2]; BGC-823 cells): 0.04 µM; GI50 ([4]; DU145 cells): 0.05 µM; GI50 ([7]; HT1080 cells): 0.09 µM; GI50 ([8]; Hela cells): 0.04 µM; GI50 ([13]; MCF-7 cells): 0.05 µM; GI50 ([15]; MOLT-4 cells): 0.09 µM; GI50 ([17]; PANC-1 cells): 0.04 µM; GI50 ([19]; U937 cells): 0.04 µM; GI50 ([20]; lncap cells): 0.04 µM |
| CC(C)=C1NC(=O)c2ccc(F)c(n2)CNC(=O)C[C@@H](/C=C/CCS)OC(=O)[C@H](C(C)C)NC1=O [Compound 138] | no activity | 0.04 | 0.02 | 0.076 | 0.02 | 0.043 | 0.022 | 0.02 | 0.06 | 0.036 | 0.021 | 0.042 | 0.045 | 0.02 | 0.052 | 0.05 | 0.016 | 0.03 | 0.072 | 0.02 | GI50 [20]: 0.05 µM |
